Assay type in all cases: biochemical
Assay [1] has as its target T1, Papain (Carica papaya, UniProt P00784).
T1 construct: purchased Sigma
T1 sequence (P00784 134-345): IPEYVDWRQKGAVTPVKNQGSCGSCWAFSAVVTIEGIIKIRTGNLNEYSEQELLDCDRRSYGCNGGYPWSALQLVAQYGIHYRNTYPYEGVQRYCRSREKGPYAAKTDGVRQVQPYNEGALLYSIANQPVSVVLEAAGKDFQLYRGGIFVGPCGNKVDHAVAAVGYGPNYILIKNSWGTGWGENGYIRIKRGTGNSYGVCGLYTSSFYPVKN
The assay can be described thus: Inhibition of Papain (protocol as for Cathepsine K). How it is done:
(§1) Les produits à tester (10 mM) sont dilués à 1 mM en DMSO et repartis dans des plaques 96 puits polystyrène Nunc à raison de 2 µl par puits. La colonne 12 de la plaque est réservée pour les contrôles et reçoit donc […] de DMSO (sans produits) par puits. Les plaques sont conservées à -80°C et décongelées le jour de l'expérience.
(§2) Les produits sont dilués à 50 µM par addition de 38 µl de tampon réaction : acétate de sodium 100 mM, EDTA 5 mM, DTT 1 mM pH 5,5. L'addition ainsi que tous les pipetages suivant sont réalisés par un pipeteur 96 cônes CybiWell. Après mélange des solutions, chaque produit est transféré dans 2 puits (duplicates) d'une plaque 384 puits noire Greiner à raison de 10 µl par puits. On peut donc tester 2 plaques 96 dans une plaque 384.
(§3) Une solution de substrat à 50 µM, Z-Val-arg-AMC (Calbiochem), est préparée dans le tampon réaction . Le substrat, est ensuite distribué dans tous les puits de la plaque 384 (20 µl par puits).
(§4) Une solution de Cathepsine K à 12,5 ng/ml est préparée dans le tampon réaction et distribuée dans tous les puits de la plaque 384 (20 µl par puits) exceptés les 16 puits servant de contrôles 100 % d'inhibition (colonne 23 et 24, lignes I à P) qui recevront 20 µl de tampon sans enzyme. Les contrôles […] d'inhibition sont réalisés dans les colonnes 23 et 24, lignes A à H qui ne contiennent pas de produits.
(§5) Les plaques sont ensuite incubées 2H à température ambiante, puis lues sur Fluoroskan (Labsystems) : excitation 390 nm; émission 460 nm
(§6) Les concentrations finales de chacun des réactifs sont : Produits 10 µM, Substrat 20 µM, enzyme 5 ng/ml.
(§7) Les % d'inhibition pour chacun des produits sont calculés en utilisant les points à 0 et 100 % d'inhibition de chaque plaque comme références. Les produits présentant une inhibition significative sont ensuite retestés sur une gamme de concentration allant de 50 à 0,5µM pour déterminer une IC50.
Etude de l'inhibition de Papain:
Protocole identique à celui de Cathepsine K exceptés : • Papain (Sigma), solution à 50 ng/ml, concentration finale 20 ng/ml • Incubation 30 min à température ambiante

Assay [2] concerns the target T2, Cathepsine K (Homo sapiens, UniProt P43235).
T2 sequence (P43235 115-329): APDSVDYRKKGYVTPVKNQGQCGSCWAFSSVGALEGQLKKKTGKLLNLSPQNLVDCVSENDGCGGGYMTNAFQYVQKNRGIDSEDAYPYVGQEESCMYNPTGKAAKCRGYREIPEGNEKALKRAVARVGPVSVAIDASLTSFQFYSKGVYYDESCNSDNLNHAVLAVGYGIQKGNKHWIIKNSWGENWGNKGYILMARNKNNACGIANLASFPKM
As to the kind of experiment: Inhibition of Cathepsine K (fluorogenic substrate Z-Val-arg-AMC). The note with it: substrate Z-Val-arg-AMC 20 µM, enzyme 5 ng/ml, pH 5.5, 2 h at room temperature; concentration range 50 to 0.5 µM; read-out: IC50 µM Cathepsin K. How it is done:
Etude de l'inhibition de Cathepsine K :
as §1, §2, §3, §4, §5, §6, §7

In assay [3] the target is T3, Cathepsine B (Homo sapiens, UniProt P07858).
T3 construct: purchased Calbiochem
As to the kind of experiment: Inhibition of Cathepsine B (fluorogenic substrate Z-arg-arg-AMC). The conditions noted are these: substrate Z-arg-arg-AMC 20 µM, enzyme 16 ng/ml, 1 h at room temperature; read-out: IC50 µM Cathepsin B. As for the experimental part: as §1, §2, §3, §4, §5, §6, §7
Etude de l'inhibition de Cathepsine B: […]

Like-named read-outs stand apart in the source and are kept apart here.

One may read the IC50 as the concentration that inhibits the measured activity by half. As to `CC(C)(C)Oc1ccc(C[C@H](NC(=O)[C@@H]2CCCN3C(=O)CC[C@H](NC(=O)Nc4ccc(Oc5ccccc5)cc4)C(=O)N23)C(=O)C=[N+]=[N-])cc1` [Exemple 54, 9-[(9S)-[[(4-phenoxyphenyl)amino]carbonyl]amino]-N-[(2S)-4-diazo-1-[4-[(1,1-dimethyl)ethoxy]phenyl]-3-oxo-2-butyl]-6H-(1S)-pyridazino[1,2-a][1,2]diazepine-1-carboxamide], in assay [1], the IC50 worked out at 15 µM.

In the case of `C=CCOC(=O)CC[C@H](NC(=O)[C@@H]1CCCN2C(=O)CC[C@H](NC(=O)NC3CCCCC3)C(=O)N12)C(=O)COC(=O)c1c(Cl)cccc1Cl` [Exemple 122, (4S) 6-[(2,6-dichlorobenzoyl)oxy] -4-[[[(1S,9S)-9-[[(cyclohexylamino)carbonyl]amino]-octahydro-6,10-dioxo-6H-pyridazino[1,2-a][1,2]diazepine-1-yl]carbonyl]amino]-5-oxo-Hexanoatede (2-propenyle)], the IC50 in assay [2] came out at 18 µM; in assay [3], 0.7 µM.

Regarding `C=CCOC(=O)CC[C@H](NC(=O)[C@@H]1CCCN2C(=O)CC[C@H](NC(=O)NCCc3cccs3)C(=O)N12)C(=O)CSc1nnnn1-c1ccccc1` [Exemple 138, (4S) 6-[(1-phenyl-1H-tetrazol-5-yl)thio]-4-[[[(1S,9S)-9-[[[[2-(thien-2-yl)-ethyl]amino]carbonyl]amino]-octahydro-6,10-dioxo-6H-pyridazino[1,2-a][1,2]diazepine-1-yl]carbonyl]amino]-5-oxo-Hexanoatede (2-propenyle)], the IC50 in assay [1] (enzyme 20 ng/ml, 30 min at room temperature, read-out: IC50 µM Papain) stood at 8 µM.

Take `C=CCOC(=O)CC[C@H](NC(=O)[C@@H]1CCCN2C(=O)CC[C@H](NC(=O)NCCc3cccs3)C(=O)N12)C(=O)COC(=O)c1c(Cl)cccc1Cl` [Exemple 141, (4S) 6-[(2,6-dichlorobenzoyl)oxy]-4-[[[(1S,9S)-9-[[[[2-(thien-2-yl)-ethyl]amino]carbonyl]amino]-octahydro-6,10-dioxo-6H-pyridazino[1,2-a][1,2]diazepine-1-yl]carbonyl]amino]-5-oxo-Hexanoatede (2-propenyle)]: the values for the IC50 in assay [2] and in assay [3] were 9 µM and 0.7 µM, respectively.

In the case of `C=CCOC(=O)CC[C@H](NC(=O)[C@@H]1CCCN2C(=O)CC[C@H](NS(C)(=O)=O)C(=O)N12)C(=O)COC(=O)c1c(Cl)cccc1Cl` [Exemple 150, (4S) 6-[(2,6-dichlorobenzoyl)oxy]-4-[[[(1S,9S)-9-[(methylsulfonyl)amino]-octahydro-6,10-dioxo-6H-pyridazino[1,2-a] [1,2]diazepine-1-yl]carbonyl]amino]-5-oxo-Hexanoatede (2-propenyle)], the IC50 was determined as 6 µM in assay [2] and 0.6 µM in assay [3].

In the case of `COC(=O)CCCC(=O)OCC(=O)[C@H](Cc1ccccc1)NC(=O)[C@@H]1CCCN2C(=O)CC[C@H](NC(=O)Nc3ccc(Oc4ccccc4)cc3)C(=O)N12` [Exemple 217], the IC50 in assay [1] (read-out: IC50 µM Papain, enzyme 20 ng/ml, 30 min at room temperature) came to 7 µM.

Consider `CC(C)C[C@H](NC(=O)[C@@H]1CCCN2C(=O)CC[C@H](NS(=O)(=O)c3ccc(C(F)(F)F)cc3)C(=O)N12)C(=O)C=[N+]=[N-]` [Exemple 347, 9-[(9S)-[[4-(trifluoromethyl)phenyl]sulfonyl]amino]-N-((3S)-1-diazo-5-methyl-2-oxo-3-hexyl)-octahydro-6,10-dioxo-6H-(1S)-pyridazino[1,2-a][1,2]diazepine-1-carboxamide], for which the IC50 in assay [2] turned out to be 12 µM.

Take “(4S) 6-diazo-4-[[[(1S,9S)-9-[[[[2-(p-2-yl)-ethyl]amino]carbonyl]amino]-octahydro-6,10-dioxo-6H-pyridazino[1,2-a][1,2]diazepine-1-yl]carbonyl]amino]-5-oxo-Hexanoate de (2-propenyle) [Exemple 44]”: in assay [2], the IC50 is 2 µM.

(Values after EP1246824B1, “CARBOXAMIDE DIAZEPIN DERIVATIVES, PREPARATION METHOD, USE AS MEDICINES, PHARMACEUTICAL COMPOSITIONS AND USE THEREOF” (Aventis Pharma S.A., priority 1999, dated 2001).)
